From patent US20260284020A1, “LATS KINASE INHIBITOR TO TREAT RETINAL DEGENERATION” (Children's Hospital Los Angeles, priority 2023, published 2026) come the findings set out here.

Entries after “also recorded” stand apart in the source; their conditions may differ.

For the data set, the system named is RPE injury by laser photocoagulation in Dutch-belted rabbits. Kind of data set: In vivo laser injury model: retinal immunohistochemistry, quantification of cell proliferation. Details: species or system rabbit. Conditions: for percentage of Ki67+ cells in the choroid vs control (in words): 1- or 4-week time points. On the procedure:
Following the laser procedure, the eyes were anesthetized once more with topical proparacaine. Povidone-iodine was applied to the conjunctiva or sclera using sterile Q-tips. Either 50 μL of 15 mM LATS kinase inhibitor (LKI), or vehicle control, was injected per eye using 1 mL Luer-lock syringe with a 27G 1½ inch needle. The second generation LKI, TDI-011536, was used as a micro-suspension formulation prepared in phosphate buffer solution (PBS; Sigma) supplemented with 0.5% carboxymethyl cellulose (Sigma) and 0.5% Kolliphor P 188 Bio (BASF Pharma). Intravitreal injections containing LKI were administered in the right eye and control injections were administered in the left eye. Injections were administered 1-2 mm posterior to the superotemporal or superonasal limbus and delivery of each compound was confirmed on indirect ophthalmoscopy.
Eyes used for immunofluorescence staining were processed according to a previously described protocol. Briefly, eyes were immediately placed in 50 mL 4% PFA in PBS on ice. After 15 minutes, eyes were removed from 4% PFA in PBS and the cornea and iris were removed under a dissecting microscope. With the cornea and iris removed, eyes were placed back in 50 mL 4% PFA and agitated overnight at 4° C. The following morning, the lens was removed. Eyes were then placed in 50 mL of 30% sucrose in PBS at 4° C. for cryoprotection. Once cryoprotection was complete, eyes were removed from 30% sucrose solution and embedded in optimal cutting temperature (OCT) compound.
Following embedding, eyes were mounted on a Leica cryostat (Leica Microsystems, Wetzlar, Germany) for sectioning. All retinal sections were 14 μm thickness and attached to a glass slide. A list of materials used can be found in Table 1.
To quantify RPE proliferation at the site of laser injury in vivo, regions 400 μm in width were centered on the outer nuclear layer (ONL) defect. Laser spots with ONL defects <30 μm in diameter, retinal detachments >225 μm, or an adjacent laser spot <200 μm away from the center of the ONL defect were excluded from analysis. Additionally, laser spots with significant tissue folding or tears were excluded. RPE cross-sectional area in μm^2 was obtained using the Wand Tool in QuPath using the RPE65 channel. RPE proliferation was quantified as the number of Ki67+ cells divided by DAPI+ cells within the RPE layer, expressed as a percentage. Choroidal proliferation was quantified as the number of Ki67+ cells divided by DAPI+ cells in the choroid.
To evaluate the effect of LKI on Müller glia at the site of injury, glial cell proliferation was quantified as the number of Ki67/Sox2 doubly positive cells divided by total number of Sox2/DAPI doubly positive cells within the 400 μm laser region, expressed as a percentage.
To evaluate the effect of LKI in undamaged retina, regions 400 μm in width in the peripheral retina were analyzed. The percentages of Ki67+ cells in the RPE layer, Ki67/Sox2 doubly positive cells, and Ki67+ cells in the choroid in unaffected regions were calculated in an identical fashion.
To further evaluate the effect of Lats kinase inhibition on the RPE injury response in vivo, eyes injected with LKI (n=9 eyes) or vehicle (n=8 eyes) from three independent experiments were cryosectioned and immunolabeled with Ki-67, a marker of cell proliferation. Additionally, sections were labeled with RPE65 to visualize RPE, Sox2 to visualize Müller glia, and Dapi to label all cell nuclei. […] RPE cross-sectional area was 14129±5605 μm^2 in LKI laser spots and 6221±914.2 μm^2 in control laser spots (P<0.0001). RPE maximal thickness was 56.36±19.23 μm in LKI laser spots and 23.08±8.46 μm in control laser spots (P<0.0001). Within the RPE layer, there was a significant increase in Ki67+ cells with LKI compared to the control (FIG. 5A, 5D). The percentage of Ki67+ RPE was 8.75±4.22% in LKI laser spots and 1.55±3.21% in control laser spots (P<0.001). […]

The mark [1] stands for this setting: laser spots, 1 week, intravitreal 50 μL of 15 mM, mean±SD.
[2] abbreviates: laser spots, 1 week, listed as LKI.

Consider `O=C(/N=c1\scc(CO)n1Cc1ccccc1)c1c[nH]c2ncccc12` [TDI-011536], for which, where the note is “1 week, listed as LKI”, the “Ki67+ (Sox2/Ki67 doubly positive) Müller glia in undamaged regions (outside of laser spots)” value is given as “no Sox2/Ki67++ cells” and the “Ki67+ cells within the RPE layer in undamaged regions (outside of laser spots)” value is reported as “no Ki67+ RPE cells”. Further, under “4 weeks, listed as LKI”, the “Ki67+ (Sox2/Ki67 doubly positive) Müller glia in undamaged regions” value is “no Sox2/Ki67++ cells” and the “Ki67+ cells within the RPE layer in undamaged regions” value is recorded as “no Ki67+ RPE cells”. Further, the “percentage of Ki67+ cells in the choroid vs control (in words)” value (laser regions) is reported as “no significant difference”. Further, under setting [1], the RPE cross-sectional area is reported as 14129±5605 μm^2 and the RPE maximal thickness worked out at 56.36±19.23 μm. Besides, under setting [2], the “Ki67+ Sox2+ cells (Müller glia) compared to control (in words)” value is “Sox2+ and Ki67+Müller glia were observed; also recorded: significantly in increased”; the “RPE cross-sectional area compared to control (in words)” value was “increase in underlying RPE cross-sectional area; also recorded: significantly increased”; the “percentage of Ki67+ RPE cells compared to control (in words)” value was “increase; also recorded: significantly increased”. Further, where the note is “laser spots, 1 week, mean±SD”, the “Ki67+ cells within the choroid” value stood at 6.66±5.37%, the “percentage of Ki67+ RPE (Ki67+ cells within the RPE layer)” value stood at 8.75±4.22% and the “percentage of Ki67+ Sox2+ cells (Müller glia)” value is given as 11.00±5.11%. Further, where the note is “laser spots, 4 weeks”, the “Ki67+ Sox2+ cells (Müller glia) compared to control (in words)” value is “no significant difference”; the “RPE maximal thickness compared to control (in words)” value is “increase in underlying RPE cross-sectional area and maximal thickness”; the “percentage of Ki67+ RPE cells compared to control (in words)” value is “no significant difference”. The compound also yielded an RPE cross-sectional area (laser spots, 4 weeks, intravitreal 50 μL of 15 mM, mean±SD) of 15800 ± 6530 µm². In addition, the “RPE cross-sectional area compared to control (in words)” value (laser spots, 4 weeks, listed as LKI) is listed as “increase in RPE cross-sectional area; also recorded: significantly increased”. In addition, under “laser spots, 4 weeks, mean±SD”, the “Ki67+ cells within the choroid” value was 0.39±0.71%, the “percentage of Ki67+ RPE (Ki67+ cells within the RPE layer)” value came out at 0.29±0.90% and the “percentage of Ki67+ Sox2+ cells (Müller glia)” value came out at 1.23±3.25%. For the same compound, for the setting “rabbits, intravitreal 50 μL of 15 mM microsuspension”, the “overall effect of intravitreal LKI microsuspension in the laser injury model (in words)” value is “extensive RPE proliferation and wound healing without measurable effects on off-target cell types or uninjured regions”. Moreover, the “percentage of Ki67+ cells in the choroid vs control (in words)” value (undamaged regions) is reported as “no significant difference”.
